Measured values: the supplement of paper PMC10307832

Columns and labels:
Experiment in all cases: relative viability (nuclei count vs DMSO), 5 days (fraction); higher = more cells survive
Kobe2602 = compound: C1=CC(=CC=C1NC(=S)NNC2=C(C=C(C=C2[N+](=O)[O-])C(F)(F)F)[N+](=O)[O-])F [Kobe2602]
In short: (§1)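 Viability was read as treated-well nuclei divided by vehicle-well nuclei, using the median across plates. Lung cancer cell lines in 1536-well plates were kept overnight at 37 °C, pinned with five √10-spaced library-drug doses, and after 5 days were Hoechst-stained, imaged at 4× and counted in MetaXpress. Plates passed only with control CV below 25% and at least one doubling.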

Cabozantinib = compound: COc1cc2nccc(Oc3ccc(NC(=O)C4(C(=O)Nc5ccc(F)cc5)CC4)cc3)c2cc1OC [Cabozantinib]
In short: as §1

Zosuquidar = compound: O[C@@H](COc1cccc2ncccc12)CN1CCN([C@@H]2c3ccccc3[C@@H]3[C@H](c4ccccc42)C3(F)F)CC1 [Zosuquidar]
In short: as §1

[1] = compound: COc1cc2nccc(Oc3ccc(NC(=O)C4(C(=O)Nc5ccc(F)cc5)CC4)cc3)c2cc1OC [Cabozantinib] + C[C@@H](Oc1cc(-c2cnn(C3CCNCC3)c2)cnc1N)c1c(Cl)ccc(F)c1Cl [Crizotinib] (partner 1 µM)
In short: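 Cells from lung cancer lines were seeded into 1536-well plates and, one day later, dosed by pin tool. Treatments were either a single drug or a fixed dose of an anchor drug with five library-drug doses (not always all listed) in √10 steps. After 5 days, nuclei were stained in a one-step fixation (final 0.05% Triton X-100, 1% formaldehyde, 1 ug/ml Hoechst) and counted on 4× images, and relative viability is the treated-to-vehicle nuclei ratio, as the median of duplicate plates.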

Row | Cell Line | relative viability (Kobe2602; 0.2 µM) | relative viability (Kobe2602; 0.6325 µM) | relative viability (Kobe2602; 2 µM) | relative viability (Kobe2602; 6.325 µM) | relative viability (Kobe2602; 20 µM) | relative viability (Cabozantinib; 0.02 µM) | relative viability (Cabozantinib; 0.06325 µM) | relative viability (Cabozantinib; 0.2 µM) | relative viability (Cabozantinib; 0.6325 µM) | relative viability (Cabozantinib; 2 µM) | relative viability (Zosuquidar; 0.01 µM) | relative viability (Zosuquidar; 0.03162 µM) | relative viability (Zosuquidar; 0.1 µM) | relative viability (Zosuquidar; 0.3162 µM) | relative viability (Zosuquidar; 1 µM) | relative viability ([1]; first compound 0.02 µM) | relative viability ([1]; first compound 0.06325 µM) | relative viability ([1]; first compound 0.2 µM) | relative viability ([1]; first compound 0.6325 µM) | relative viability ([1]; first compound 2 µM)
1 | NCI-H2228 | 1.02 | 1.11 | 1.01 | 0.944 | 1.11 | 1.05 | 1.11 | 0.938 | 0.879 | 0.871 | 0.901 | 0.979 | 1.02 | 0.952 | 1.03 | 0.581 | 0.496 | 0.505 | 0.403 | 0.315
2 | NCI-H2347 | 1.04 | 1.02 | 1.01 | 1.06 | 1.07 | 1.15 | 1.14 | 1.06 | 0.886 | 0.961 | 1 | 1.05 | 0.854 | 1.11 | 0.991 | 0.761 | 0.771 | 0.46 | 0.786 | 0.584
3 | NCI-H2405 | 1.04 | 1.09 | 0.964 | 1.09 | 1.14 | 0.807 | 1.11 | 1.09 | 1.01 | 1.08 | 1.1 | 0.942 | 0.981 | 1.03 | 0.93 | 0.933 | 0.862 | 0.872 | 0.873 | 0.895
4 | NCI-H3122 | 1.01 | 0.971 | 1.01 | 0.985 | 1.04 | 0.995 | 1.05 | 1.03 | 0.983 | 0.998 | 0.984 | 0.952 | 0.919 | 1.07 | 0.987 | 0.272 | 0.301 | 0.271 | 0.297 | 0.309
5 | PC-3 [JPC-3] | 1.07 | 1.09 | 1.01 | 1.01 | 0.954 | 1.03 | 1.21 |  | 1.03 | 1.09 | 1.06 | 0.992 | 0.883 | 0.972 | 1.01 | 1.07 | 1.1 |  | 0.919 | 0.967
6 | PC-14 | 0.993 | 1.05 | 0.989 | 1.04 | 0.952 | 1.01 | 1.14 |  | 0.996 | 0.99 | 0.988 | 0.981 | 0.953 | 1.11 | 0.954 | 0.983 | 0.911 |  | 0.894 | 0.788
7 | RERF-LC-KJ | 0.981 | 0.943 | 0.959 | 0.9 | 0.906 | 1.02 | 1.1 | 0.935 | 0.996 | 0.994 | 0.943 | 1.03 | 1.03 | 1.04 | 0.971 | 0.868 | 0.895 | 0.917 | 0.802 | 0.855
8 | SK-LU-1 | 1 | 1.13 | 0.937 | 1.04 | 1.1 | 0.97 | 1.24 | 1.08 | 0.926 | 0.942 | 1.1 | 1.02 | 0.962 | 1.11 | 1.07 |  | 0.941 | 0.772 | 0.872 | 0.857
9 | SK-MES-1 | 0.96 | 1.05 | 0.964 | 0.97 | 0.855 | 0.981 | 1.14 | 0.986 | 1.03 | 0.953 | 0.998 | 0.993 | 0.912 | 1.02 | 1.04 | 1.13 | 1.14 | 1.02 | 1.03 | 0.825
10 | SW 1573 | 0.933 | 1.02 | 0.915 | 0.883 | 0.907 | 0.984 | 1.05 | 1.01 | 0.979 | 0.819 | 0.925 | 1 | 1.03 | 1.07 | 0.934 | 0.927 | 0.873 | 0.948 | 0.822 | 0.671
